Measurements: US20260234153A1, “NON-COVALENT DIMER CATION OF PURINE/PYRIMIDINE AND AMINO ACID, SALT THEREOF, PREPARATION METHOD THEREFOR, AND USE THEREOF” (Suzhou Protonation Chain Biotechnology Co., Ltd, priority 2023, published 2026)

What was measured:
[1] = test system: GES-1 human gastric mucosal epithelial cells; test: Ethanol induced damage model of gastric mucosal epithelial cells, cell viability; assay type: cell-based; details: GES1, GES-1 cells, 7% ethanol 12 h, then compound concentration 0.5 mg/mL, 24 h
Description: Chronic alcoholics are prone to gastric mucosal damage due to long-term alcohol damage.
The salts of example 51 and example 57 were taken as experimental compounds, and glycyrrhetinic acid was taken as a control compound. A blank control group (without ethanol) and a model group (with ethanol but without the salts of the examples or glycyrrhetinic acid) were set.
The cells were cultured in a complete RPMI 1640 medium for 6 h.
(§1) Then, the cell viability was detected.

[2] = test system: SH-SY5Y human neuroblastoma cells; test: Parkinson's disease cell model (6-OHDA), cell viability; assay type: cell-based; details: 24 h, read-out: Cell viability (%)
Excerpt: The salts of example 51 and examples 57 were taken as experimental compounds, and selegiline was taken as a control compound.
as §1

Structure (SMILES) | viability at 500 µg/mL [1] [%] | viability at 500 µg/mL [2] [%]
CC1(C)[C@@H](O)CC[C@]2(C)[C@H]3C(=O)C=C4[C@@H]5C[C@@](C)(C(=O)O)CC[C@]5(C)CC[C@@]4(C)[C@]3(C)CC[C@@H]12 [Glycyrrhetinic acid, glycyrrhetinic acid] | 61.8 | 
C#CCN(C)[C@H](C)Cc1ccccc1 [Selegiline, selegiline] |  | 37.5
